We go through one compound from paper PMC9496346, “Controversial Role of Transferrin in the Transport of Ruthenium Anticancer Drugs” (Biomolecules, 2022).

Structures are written as SMILES.

Series [1] has as its system protein in cell culture medium. In words: Ru–protein binding in cell culture medium (gel filtration, GFAAS). Format: in vitro ADME. The conditions noted are these: basal medium with ~15 μM BSA, conditions B1 and B2. As to the method: An aliquot (50 µL) of cell culture medium from each well was passed through a separate Bio-Rad P6 centrifugal gel filtration column that was pre-saturated with PBS, according to manufacturer’s instructions. The eluants (50 ± 5 µL volume) contained protein-bound Ru fractions (>6 kDa molecular mass). The protein recovery, measured by Bradford assays, exceeded 95%. Another 50 µL sample of each medium was taken into separate tubes. Both the original and gel-filtered media samples were digested with 0.20 mL of 65% (v/v) HNO3 for 24 h. The digests were diluted with 0.75 mL of 0.10 M HCl, and the Ru content in the samples was determined by GFAAS. The percentage of protein binding was determined from the ratio of Ru content in the gel-filtered and original media samples [30, 31].
For orientation: SEC sorts molecules by how far they enter the pores of the column.

In series [2] the test system is T1, recombinant human transferrin receptor 1 (TfR1).
T1 construct: extracellular domain (Cyst89-Phe760), (His)6-tagged at the N-terminus; purchased Sino Biological, Beijing, China (TfR1)
In words: BLI of Tf–TfR1 binding in dilute cell culture media after uptake experiments. The conditions noted are these: apoTf 30 μM + KP1019 60 μM in DMEM with ~15 μM BSA, vs same medium with apoTf only. The procedure:
(§1) The effects of Ru complexes on the Tf cycle were determined by BLI using previously developed protocols. The instrument used was a single-channel BLItz analyser (ForteBio, Menlo Park, CA, USA) with a tube holder (250 µL solution volume) and Ni(II)–nta coated optical probes held at 295 ± 1 K. Measurements used the Advanced Kinetics mode. […] Solutions of metal–Tf adducts (typical final Tf concentrations 150 nM or 1.0 µM) were prepared in the binding buffer (Section 2.1). The pH 7.4 binding buffer was used for Tf binding and dissociation from the probe, and the pH 5.6 buffer (Section 2.1) was used to mimic the endosomal step of the Tf cycle. Metal–Tf solutions (A1–A9 in Table 1) were diluted 100–400-fold, cell culture media were diluted 30-fold, and human serum samples were diluted 200-fold with the binding buffer immediately before the BLI measurements. All BLI data were background corrected by using data from buffer only runs with the same TfR1-loaded optical probe. Consistent BLI results were obtained in at least two independent measurements, using different probes and different batches of Tf solutions. Calculations of the Tf–TfR1 binding constants were performed using the 1:1 binding model (BLItz software, Version 1.1, Forte-Bio 2013), which can be used as a reasonable approximation of the physiological 2:2 Tf–TfR1 binding mechanism at low Tf concentrations.
(a) BLI response curves for 1.0 µM of human Tf at 295 K in dilute cell culture media after Ru uptake experiments by HepG2 cells (Section 3.2 in the main text). Media (serum-free DMEM, containing 1.0 mg mL−1 BSA as a background protein, as well as KP1019 and/or Tf, as shown in the figure legend), were collected after the end of uptake experiments, then were diluted 30-fold with buffer (20 mM HEPES + 25 mM NaHCO3 + 140 mM NaCl, pH = 7.4) and applied to TfR1-loaded BLI probe. Designations of the steps in Tf cycle (A–D) correspond to those in Figure 1d-f, main text. Calculated KD values (1:1 binding model, BLItz software) were as […]

The subject of series [3] is T2, recombinant human transferrin receptor 1 (TfR1).
T2 construct: extracellular domain (Cyst89-Phe760), (His)6-tagged at the N-terminus; purchased Sino Biological, Beijing, China (TfR1); Sigma (human serum, Cat. No. H4522, as source of Tf) 11020-H07H
In words: BLI of Tf–TfR1 binding in dilute human serum pre-treated with metal complexes. As to conditions: serum incubated with 100 μM Ru complex or 60 μM Fe(III) as citrate. The procedure: as §1, with “concentrations. […]” for “concentrations.”
(b) BLI response curves for dilute human serum samples in the presence or absence of metal complexes. Intact commercial human serum (Sigma H4522) was incubated with Fe(III)-citrate (60 µM) or with Ru complexes (100 µM) for 4 h at 310 K, then diluted 200-fold (to [Tf] ~ 150 nM) with the binding buffer (20 mM HEPES, 25 mM NaHCO3, 140 mM NaCl, pH = 7.4), and analyzed with the TfR1-loaded BLI probe. Designations of the steps in Tf cycle (A–D) correspond to those in Figure 1d-f, main text. Calculated KD values (1:1 binding model, BLItz software) were as follows: 8.0 nM (serum + Fe(III) citrate); or 28 ± 2 nM (serum in the presence or absence of Ru complexes). Typical anticancer Ru complexes, NAMI-A, KP1019 and RAPTA-C, were synthesized and characterized previously in the Lay group.
(1 picture or pasted object on this page, not shown here)

The conditions of series [4]: cited from earlier work.

As for `[Cl-].[Cl-].[Cl-].[Cl-].[Ru+3].c1ccc2[nH][nH+]cc2c1.c1ccc2[nH]ncc2c1.c1ccc2[nH]ncc2c1` [KP1019, (IndH)[Ru^IIICl4(Ind)2]], the “Protein-bound proportion of KP1019 decomposition products in basal medium” value in series [1] was ~ 50%. Also, the “Effect on Tf–TfR1 binding in cell culture medium” value in series [2] was “did not have a major effect”. Besides, in series [3], the “Effect on Tf–TfR1 binding in whole human serum” value is on record as “did not have any effect”. Also, the “Tf binding of KP1019 decomposition products in blood serum, share of total Ru” value in series [4] (human pharmacokinetic studies) is 1–2%. The “Typical peak Ru concentrations in the blood of patients” value in series [4] (patients treated with KP1019 in clinical trials) is 0.1 to 0.4 mM.
